According to ChEMBL document CHEMBL1201862, “PubChem BioAssay data set” (2004):
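Results reflect a 48-hour exposure of cells in 96-well plates to compound at five concentrations. GI50 is the concentration that inhibits growth by half.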 Calls of active or inactive are those of the source. No stated cut-off is given here; in the data, active = GI50 up to about 1.1 µM and inactive = higher.

What was measured:
Experiment in all cases: DTP human tumour cell line panel, 48 h
[1] = system: A498
[2] = system: A549
[3] = system: COLO 205
[4] = system: HCC 2998
[5] = system: HCT-116
[6] = system: HOP-62
[7] = system: Hs-578T
[8] = system: M14
[9] = system: MDA-MB-231
[10] = system: MOLT-4
[11] = system: NCI-H23
[12] = system: NCI-H522
[13] = system: SK-OV-3
[14] = system: SNB-75
[15] = system: SR
[16] = system: SW-620
[17] = system: TK-10
[18] = system: UACC-62
[19] = system: Malme-3M
[20] = system: SF-539

SMILES	GI50 [1]	GI50 [2]	GI50 [3]	GI50 [4]	GI50 [5]	GI50 [6]	GI50 [7]	GI50 [8]	GI50 [9]	GI50 [10]	GI50 [11]	GI50 [12]	GI50 [13]	GI50 [14]	GI50 [15]	GI50 [16]	GI50 [17]	GI50 [18]	GI50 [19]	GI50 [20]
C=CC[C@@H]1C(=O)[C@@]2(O[Si](C(C)C)(C(C)C)C(C)C)CC[C@@H]1C[C@H]2NC(=O)OCC(Cl)(Cl)Cl	> 100 µM (inactive)	> 100 µM (inactive)	> 100 µM (inactive)	43.2 µM (inactive)	27.9 µM (inactive)	> 100 µM (inactive)	> 100 µM (inactive)	> 100 µM (inactive)	> 10 µM (inactive)	> 100 µM (inactive)	> 100 µM (inactive)	< 0.01 µM (active)	> 100 µM (inactive)	> 100 µM (inactive)	35.4 µM (inactive)	> 100 µM (inactive)	> 100 µM (inactive)	> 100 µM (inactive)		
Clc1ccccc1NN(Cc1ccncc1)c1ccccc1Cl	19.1 µM (inactive)	12.5 µM (inactive)	14.4 µM (inactive)		13 µM (inactive)	15.8 µM (inactive)	18.2 µM (inactive)	17.7 µM (inactive)	13.6 µM (inactive)	15.5 µM (inactive)	15.6 µM (inactive)	12.1 µM (inactive)	28.1 µM (inactive)	17.5 µM (inactive)	13.2 µM (inactive)	16.9 µM (inactive)		13.2 µM (inactive)	17.7 µM (inactive)	18.2 µM (inactive)
CCc1n[nH]c(=O)n1NC(=O)CCCC(=O)O	> 100 µM (inactive)	> 100 µM (inactive)	> 100 µM (inactive)	> 100 µM (inactive)	> 100 µM (inactive)	> 100 µM (inactive)	> 100 µM (inactive)	> 100 µM (inactive)	> 100 µM (inactive)	> 100 µM (inactive)	> 100 µM (inactive)	> 100 µM (inactive)	> 100 µM (inactive)		> 100 µM (inactive)	> 100 µM (inactive)	> 100 µM (inactive)	> 100 µM (inactive)	> 100 µM (inactive)	> 100 µM (inactive)
O=[N+]([O-])c1ccc2c(Nc3ccccc3-c3ccccc3Nc3c4ccccc4nc4cc([N+](=O)[O-])ccc34)c3ccccc3nc2c1	9.35 µM (inactive)	6.07 µM (inactive)	2.74 µM (inactive)	3.98 µM (inactive)	1.65 µM (inactive)	9.33 µM (inactive)	2.47 µM (inactive)	2.92 µM (inactive)	2.31 µM (inactive)	4.01 µM (inactive)	10.8 µM (inactive)	3.87 µM (inactive)	13.2 µM (inactive)	4.19 µM (inactive)	1.69 µM (inactive)	1.69 µM (inactive)	4.46 µM (inactive)	3.16 µM (inactive)	8.63 µM (inactive)	4.59 µM (inactive)
Nc1nc(Cl)c(N)c(NCC2(CO)CC(CCCc3ccccc3)C2)n1 (centres undefined)	15.5 µM (inactive)	15.5 µM (inactive)	16 µM (inactive)	38.2 µM (inactive)	0.495 µM (active)	59.2 µM (inactive)	36.7 µM (inactive)	22 µM (inactive)	41.5 µM (inactive)	5.07 µM (inactive)		0.121 µM (active)	> 100 µM (inactive)	20.4 µM (inactive)	23.6 µM (inactive)	40.1 µM (inactive)	56.2 µM (inactive)	24.1 µM (inactive)	1.26 µM (inactive)	30 µM (inactive)
O=C(/C=C/c1ccsc1)c1cccs1	> 100 µM (inactive)	33 µM (inactive)	34.1 µM (inactive)	19.7 µM (inactive)	15.6 µM (inactive)	> 100 µM (inactive)	40.3 µM (inactive)	22.8 µM (inactive)	36 µM (inactive)	> 10 µM (inactive)	22.5 µM (inactive)	18.7 µM (inactive)	39.1 µM (inactive)	> 100 µM (inactive)	> 10 µM (inactive)	17.3 µM (inactive)	23.1 µM (inactive)	25.4 µM (inactive)	50 µM (inactive)	32.9 µM (inactive)
CCOC(=O)c1c(N2CCCC2)nsc1Nc1ccc(F)cc1	40 µM (inactive)	27.9 µM (inactive)	48.5 µM (inactive)	31.4 µM (inactive)	29.7 µM (inactive)	63.5 µM (inactive)	40.9 µM (inactive)	48.8 µM (inactive)	39.4 µM (inactive)	23.9 µM (inactive)	27.1 µM (inactive)	33.5 µM (inactive)	41 µM (inactive)		45.7 µM (inactive)	40.4 µM (inactive)	57.7 µM (inactive)	45.4 µM (inactive)	21.9 µM (inactive)	64.7 µM (inactive)
O=[N+]([O-])c1ccc(O)c(/C=N/c2nc(-c3ccccc3)cs2)c1	> 93.5 µM (inactive)	38.5 µM (inactive)	19.6 µM (inactive)	24.8 µM (inactive)	26.7 µM (inactive)	26.7 µM (inactive)	25.8 µM (inactive)	29.4 µM (inactive)	33.3 µM (inactive)	17.9 µM (inactive)	20.3 µM (inactive)	19.2 µM (inactive)	32.5 µM (inactive)	23 µM (inactive)	3.03 µM (inactive)	37.6 µM (inactive)	42.5 µM (inactive)	4.67 µM (inactive)	24.8 µM (inactive)	
COc1cccc(NC(=O)CC(=O)N2N=C(C)C(/N=N/c3ccc(S(=O)(=O)CCOS(=O)(=O)O)cc3)C2=O)c1 (centres undefined)	10.8 µM (inactive)	18.9 µM (inactive)	7.1 µM (inactive)	15.5 µM (inactive)	3.22 µM (inactive)	13 µM (inactive)	14 µM (inactive)	5.83 µM (inactive)	4.63 µM (inactive)	2.26 µM (inactive)	4.69 µM (inactive)	0.796 µM (active)		3.27 µM (inactive)	1.45 µM (inactive)	2.99 µM (inactive)	5.75 µM (inactive)		11.1 µM (inactive)	12.5 µM (inactive)
Nc1nc(Cl)c(CO)c(NCC2(CO)CCC2)n1	> 100 µM (inactive)	> 100 µM (inactive)	> 100 µM (inactive)	> 100 µM (inactive)	> 100 µM (inactive)	> 100 µM (inactive)	> 100 µM (inactive)		> 100 µM (inactive)	> 100 µM (inactive)	41.9 µM (inactive)	> 100 µM (inactive)		> 100 µM (inactive)	> 100 µM (inactive)	> 100 µM (inactive)	> 100 µM (inactive)		> 100 µM (inactive)	> 100 µM (inactive)
COc1cc(/C=C/C=C2\CC(C)C/C(=C\C=C\c3ccc(O)c(OC)c3)C2=O)ccc1O (centres undefined)		5.11 µM (inactive)	16.7 µM (inactive)	17.5 µM (inactive)	15 µM (inactive)	17.4 µM (inactive)	10 µM (inactive)	15.4 µM (inactive)	17 µM (inactive)	0.964 µM (active)	12.2 µM (inactive)	0.522 µM (active)	4.83 µM (inactive)	15.1 µM (inactive)	1.69 µM (inactive)	12.7 µM (inactive)	3.05 µM (inactive)	11.9 µM (inactive)	9.48 µM (inactive)	22.1 µM (inactive)
O=[N+]([O-])/C=C/c1cc2ccccc2[nH]1	19.3 µM (inactive)	17.5 µM (inactive)	17.2 µM (inactive)		4.31 µM (inactive)	16.5 µM (inactive)	22.5 µM (inactive)	12.5 µM (inactive)	18.2 µM (inactive)	15.2 µM (inactive)	13.1 µM (inactive)	9.35 µM (inactive)	16.9 µM (inactive)	15.2 µM (inactive)	5.06 µM (inactive)	8.83 µM (inactive)	17.5 µM (inactive)	18.2 µM (inactive)	27.5 µM (inactive)	9.84 µM (inactive)
CC(C)(C)c1cc(C2=NN(c3ccccc3)C(c3ccccc3)C2)cc(C(C)(C)C)c1O (centres undefined)	> 100 µM (inactive)	> 100 µM (inactive)	35.7 µM (inactive)		> 100 µM (inactive)	> 100 µM (inactive)	> 100 µM (inactive)	> 100 µM (inactive)	> 100 µM (inactive)	> 100 µM (inactive)	> 100 µM (inactive)	> 100 µM (inactive)	> 100 µM (inactive)	> 100 µM (inactive)	29.3 µM (inactive)	> 100 µM (inactive)	> 100 µM (inactive)	> 100 µM (inactive)	> 100 µM (inactive)	> 100 µM (inactive)
C=CCO[C@]1(CC=C)C(=O)C(=O)OC1C1COC(C)(C)O1 (some centres undefined)	> 100 µM (inactive)	> 100 µM (inactive)	20.5 µM (inactive)	> 100 µM (inactive)	32 µM (inactive)	> 100 µM (inactive)	74 µM (inactive)		41.6 µM (inactive)	31.8 µM (inactive)	53.2 µM (inactive)	21.2 µM (inactive)		27.7 µM (inactive)	22.9 µM (inactive)	18.6 µM (inactive)			17.3 µM (inactive)	> 100 µM (inactive)
COC1=C(OC)C(=O)C(Cc2c(Cl)nc3sc(C)cn23)=C(C)C1=O	22.9 µM (inactive)	17.2 µM (inactive)	19.6 µM (inactive)	17.2 µM (inactive)	23 µM (inactive)	19.3 µM (inactive)	19.7 µM (inactive)	17.1 µM (inactive)	12.2 µM (inactive)	1.29 µM (inactive)	13.7 µM (inactive)	13.4 µM (inactive)	17.5 µM (inactive)		16.7 µM (inactive)	21.3 µM (inactive)	16.4 µM (inactive)	11.6 µM (inactive)	12.2 µM (inactive)	19 µM (inactive)
